Assay results: ChEMBL document CHEMBL1201862, “PubChem BioAssay data set” (2004)
Calls of active or inactive are those of the source.

How the values were obtained:
Beta-lactamase [1] = biological target: T1, Beta-lactamase (Pseudomonas aeruginosa, UniProt Q79MP6); assay: inhibition of IMP-1 beta-lactamase activity – biochemical, epi-absorbance, selectivity assay for VIM-2 inhibitor project, dose response (AID 1920)
Beta Lactamase [2] = biological target: T2, Beta Lactamase (Pseudomonas aeruginosa, UniProt Q932Y6); assay: VIM-2 CCF2 hydrolysis inhibition, assay artifact filter – biochemical, FRET readout, CCF2 substrate, artefact control for selective VIM-2 inhibitor project, dose response (AID 1926)
T2 sequence (Q932Y6 whole entry): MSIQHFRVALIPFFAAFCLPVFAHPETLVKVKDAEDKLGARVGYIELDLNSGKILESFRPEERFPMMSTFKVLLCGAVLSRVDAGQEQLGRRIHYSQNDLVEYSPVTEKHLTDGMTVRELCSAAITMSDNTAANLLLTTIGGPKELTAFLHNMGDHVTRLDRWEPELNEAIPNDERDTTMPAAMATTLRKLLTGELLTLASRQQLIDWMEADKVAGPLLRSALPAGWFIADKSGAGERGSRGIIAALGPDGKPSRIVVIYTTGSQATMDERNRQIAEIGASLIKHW

Beta Lactamase [3] = biological target: T2, Beta Lactamase; assay: concentration-dependent VIM-2 enzyme inhibition – biochemical, epi-absorbance readout, selective inhibitors, dose response (AID 1919)
Beta-lactamase [4] = biological target: T1, Beta-lactamase; assay: […] counterscreen for selective VIM-2 inhibitors: dose response biochemical high throughput screening assay to identify inhibitors of IMP-1 metallo-beta-lactamase.
[5] = biological target: FAD-linked sulfhydryl oxidase ALR (Homo sapiens, UniProt P55789); assay: ALR-catalysed DTT oxidation blockers – biochemical, H2O2 detection, luminescence, cherry-pick, dose response (AID 493248)
FAD-linked sulfhydryl oxidase ALR, sequence (P55789 whole entry): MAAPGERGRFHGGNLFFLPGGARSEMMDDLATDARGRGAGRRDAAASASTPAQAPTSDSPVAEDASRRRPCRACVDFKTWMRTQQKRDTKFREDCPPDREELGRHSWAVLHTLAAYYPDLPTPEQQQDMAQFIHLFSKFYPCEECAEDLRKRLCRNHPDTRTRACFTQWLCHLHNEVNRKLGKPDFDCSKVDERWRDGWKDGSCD

Beta-lactamase [6] = biological target: T3, Beta-lactamase (Salmonella choleraesuis (strain SC-B67), UniProt Q5J463); assay: Epi-absorbance-based counterscreen for selective VIM-2 inhibitors: dose response biochemical high throughput screening assay to identify inhibitors of TEM-1 serine-beta-lactamase.
T3 sequence (Q5J463 whole entry): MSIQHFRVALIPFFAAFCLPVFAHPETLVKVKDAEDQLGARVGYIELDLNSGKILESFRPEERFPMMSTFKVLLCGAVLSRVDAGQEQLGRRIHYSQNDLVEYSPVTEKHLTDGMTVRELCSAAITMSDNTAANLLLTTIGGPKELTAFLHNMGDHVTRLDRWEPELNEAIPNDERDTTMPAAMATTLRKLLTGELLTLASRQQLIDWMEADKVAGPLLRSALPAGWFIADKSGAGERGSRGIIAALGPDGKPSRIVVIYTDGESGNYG

[7] = P. falciparum Dd2 growth inhibitors, dose response, SYBR Green, cherry-picked samples (AID 1159567); type: functional, cell-based
[8] = Dd2 malaria parasite growth inhibition potency – SYBR Green, dry powder samples, dose response (AID 1159566); type: functional, cell-based;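 also: potency for growth inhibition with lower SYBR green DNA signal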
[9] = viability loss in LCL cells – cell-based, plate reader, dry powder, set 2, cytotoxicity control, dose response (AID 624367); type: functional
[10] = toxicity to human hepatoma HepG2 cells – cell-based, cherry-picked samples, cytotoxicity control, dose response (AID 1159577); type: functional
[11] = growth inhibition of PfATP4-mutant resistant parasites – NITD609-resistant line, SYBR Green, dry powder, dose response (AID 1159571); type: functional, cell-based;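 also: parasites synchronized at ring stage by sorbitol before testing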
[12] = growth inhibition of yeast DHODH-expressing 3D7 parasites – SYBR Green, dry powder samples, dose response (AID 1159570); type: functional, cell-based;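 also: parasite growth measured after 72 hours of compound exposure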
[13] = toxicity to human HepG2 hepatoma cells – cell-based, plate reader, dry powder samples, cytotoxicity control, dose response (AID 1159569); type: functional;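 also: inhibitor potency with signal falling toward the positive control level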
[14] = biological target: Tyrosine-protein phosphatase non-receptor type 11 (Homo sapiens, UniProt Q06124); assay: PTPN11 enzyme inhibitors – biochemical, selectivity assay for STEP inhibitor project, dose response (AID 602367); type: functional; conditions: read-out: IC50_Mean
Tyrosine-protein phosphatase non-receptor type 11, sequence (Q06124 whole entry): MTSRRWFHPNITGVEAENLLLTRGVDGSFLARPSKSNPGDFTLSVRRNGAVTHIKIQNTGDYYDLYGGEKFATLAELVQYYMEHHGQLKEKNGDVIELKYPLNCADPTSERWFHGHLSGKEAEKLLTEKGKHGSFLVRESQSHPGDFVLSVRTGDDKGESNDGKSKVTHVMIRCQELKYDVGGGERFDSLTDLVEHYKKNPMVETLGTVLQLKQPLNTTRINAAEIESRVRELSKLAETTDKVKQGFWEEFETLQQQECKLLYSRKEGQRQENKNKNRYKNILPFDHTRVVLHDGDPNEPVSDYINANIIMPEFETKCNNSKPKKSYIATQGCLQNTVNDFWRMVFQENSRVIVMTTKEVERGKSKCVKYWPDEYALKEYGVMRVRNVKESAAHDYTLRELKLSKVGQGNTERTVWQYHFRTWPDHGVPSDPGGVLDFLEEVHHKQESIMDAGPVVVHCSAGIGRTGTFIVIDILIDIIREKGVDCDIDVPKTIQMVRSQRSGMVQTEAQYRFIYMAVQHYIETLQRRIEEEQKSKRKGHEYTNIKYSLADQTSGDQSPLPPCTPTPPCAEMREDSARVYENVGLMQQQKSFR

[15] = biological target: Dual specificity protein phosphatase 3 (Homo sapiens, UniProt P51452); assay: VHR phosphatase inhibition, dose response, selectivity assay for STEP inhibitor project, biochemical (AID 602374); type: functional; conditions: read-out: IC50_Mean
Dual specificity protein phosphatase 3, sequence (P51452 whole entry): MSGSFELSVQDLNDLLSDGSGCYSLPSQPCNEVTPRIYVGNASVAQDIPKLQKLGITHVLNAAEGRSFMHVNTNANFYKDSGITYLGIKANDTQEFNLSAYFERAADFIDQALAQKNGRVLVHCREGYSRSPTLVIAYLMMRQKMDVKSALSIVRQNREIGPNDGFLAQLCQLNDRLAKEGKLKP

[16] = biological target: Tyrosine-protein phosphatase non-receptor type 5 (Homo sapiens, UniProt P54829); assay: PTPN5 enzyme inhibition – biochemical, fluorescence intensity, uHTS hits, confirmation (AID 602372); type: functional; conditions: read-out: IC50_Mean
Tyrosine-protein phosphatase non-receptor type 5, sequence (P54829 whole entry): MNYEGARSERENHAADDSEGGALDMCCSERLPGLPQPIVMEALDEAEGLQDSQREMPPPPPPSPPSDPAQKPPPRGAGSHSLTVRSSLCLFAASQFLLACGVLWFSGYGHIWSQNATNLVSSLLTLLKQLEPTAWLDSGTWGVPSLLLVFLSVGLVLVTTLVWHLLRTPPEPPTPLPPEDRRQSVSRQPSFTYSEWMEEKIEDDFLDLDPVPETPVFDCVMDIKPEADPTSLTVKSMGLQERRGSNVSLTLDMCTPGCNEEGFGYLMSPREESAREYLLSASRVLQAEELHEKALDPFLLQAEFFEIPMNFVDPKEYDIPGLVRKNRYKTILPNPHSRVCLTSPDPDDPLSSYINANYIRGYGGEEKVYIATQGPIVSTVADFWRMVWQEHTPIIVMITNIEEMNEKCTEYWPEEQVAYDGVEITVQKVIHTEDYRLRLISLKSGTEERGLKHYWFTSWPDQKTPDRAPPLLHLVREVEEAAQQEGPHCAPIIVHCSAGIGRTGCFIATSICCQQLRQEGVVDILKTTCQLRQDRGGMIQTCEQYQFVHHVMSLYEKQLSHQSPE

[17] = biological target: T4, Tyrosine-protein phosphatase non-receptor type 22 (Homo sapiens, UniProt Q9Y2R2); assay: lymphoid phosphatase LYP inhibitors – biochemical, selectivity assay for STEP inhibitor project, dose response (AID 624241); type: functional
T4 sequence (Q9Y2R2 whole entry): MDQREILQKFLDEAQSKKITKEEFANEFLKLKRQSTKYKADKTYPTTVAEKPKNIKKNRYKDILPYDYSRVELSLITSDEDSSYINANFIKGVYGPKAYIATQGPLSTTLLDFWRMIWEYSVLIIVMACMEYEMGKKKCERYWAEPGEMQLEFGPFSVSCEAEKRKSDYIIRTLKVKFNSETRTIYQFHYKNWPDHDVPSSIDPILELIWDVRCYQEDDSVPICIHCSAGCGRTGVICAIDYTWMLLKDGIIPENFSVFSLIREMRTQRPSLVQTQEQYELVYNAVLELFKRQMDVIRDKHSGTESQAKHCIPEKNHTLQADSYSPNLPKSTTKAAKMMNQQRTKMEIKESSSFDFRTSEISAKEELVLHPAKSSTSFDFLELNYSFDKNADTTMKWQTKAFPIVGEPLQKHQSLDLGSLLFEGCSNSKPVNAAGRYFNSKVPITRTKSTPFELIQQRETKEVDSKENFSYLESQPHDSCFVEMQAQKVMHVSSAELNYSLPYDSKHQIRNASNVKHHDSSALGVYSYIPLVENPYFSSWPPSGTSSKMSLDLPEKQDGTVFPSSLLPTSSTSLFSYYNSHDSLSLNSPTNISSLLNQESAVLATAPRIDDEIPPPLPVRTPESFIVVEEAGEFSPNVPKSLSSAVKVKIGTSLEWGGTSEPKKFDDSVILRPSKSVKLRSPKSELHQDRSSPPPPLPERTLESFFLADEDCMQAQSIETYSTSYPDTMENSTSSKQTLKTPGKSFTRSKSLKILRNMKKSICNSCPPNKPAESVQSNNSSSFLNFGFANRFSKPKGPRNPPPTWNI

[18] = biological target: Glucose-6-phosphate 1-dehydrogenase (Homo sapiens, UniProt P11413); assay: inhibition of Homo sapiens G6PD, dose series – biochemical, fluorescence, selectivity assay for P. falciparum G6PD inhibitor project, dose response (AID 504792); type: functional
Glucose-6-phosphate 1-dehydrogenase, sequence (P11413 whole entry): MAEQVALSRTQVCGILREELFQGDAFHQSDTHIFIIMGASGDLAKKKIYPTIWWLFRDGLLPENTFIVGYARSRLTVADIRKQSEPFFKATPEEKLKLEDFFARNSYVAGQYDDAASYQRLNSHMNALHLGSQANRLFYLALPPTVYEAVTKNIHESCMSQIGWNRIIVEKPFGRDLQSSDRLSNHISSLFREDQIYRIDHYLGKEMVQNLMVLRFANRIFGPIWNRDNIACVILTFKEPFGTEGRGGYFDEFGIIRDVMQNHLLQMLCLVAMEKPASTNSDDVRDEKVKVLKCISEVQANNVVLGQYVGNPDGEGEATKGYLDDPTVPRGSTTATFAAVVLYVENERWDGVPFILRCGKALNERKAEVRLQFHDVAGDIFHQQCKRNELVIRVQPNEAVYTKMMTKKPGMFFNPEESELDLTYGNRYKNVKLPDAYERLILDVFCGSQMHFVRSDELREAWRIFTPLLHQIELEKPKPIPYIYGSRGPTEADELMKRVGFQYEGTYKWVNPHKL

HeLa = assay: viability loss in HeLa cells – cell-based, ATP luminescence, cherry-pick samples, cytotoxicity control, dose response (AID 687004); type: functional; conditions: Homo sapiens
Beta-lactamase [19] = biological target: T3, Beta-lactamase
Beta-lactamase [20] = biological target: T1, Beta-lactamase
Protein RecA = biological target: T5, Protein RecA (Mycobacterium tuberculosis, UniProt P9WHJ3); assay: Fluorescence Cell-Free Homogeneous Dose Retest to Identify Inhibitors of RecA-Intein Splicing Activity. [Related pubchem assays (depositor defined):AID2097, AID2223, AID489010, AID492950]; type: functional
T5 sequence (P9WHJ3 whole entry): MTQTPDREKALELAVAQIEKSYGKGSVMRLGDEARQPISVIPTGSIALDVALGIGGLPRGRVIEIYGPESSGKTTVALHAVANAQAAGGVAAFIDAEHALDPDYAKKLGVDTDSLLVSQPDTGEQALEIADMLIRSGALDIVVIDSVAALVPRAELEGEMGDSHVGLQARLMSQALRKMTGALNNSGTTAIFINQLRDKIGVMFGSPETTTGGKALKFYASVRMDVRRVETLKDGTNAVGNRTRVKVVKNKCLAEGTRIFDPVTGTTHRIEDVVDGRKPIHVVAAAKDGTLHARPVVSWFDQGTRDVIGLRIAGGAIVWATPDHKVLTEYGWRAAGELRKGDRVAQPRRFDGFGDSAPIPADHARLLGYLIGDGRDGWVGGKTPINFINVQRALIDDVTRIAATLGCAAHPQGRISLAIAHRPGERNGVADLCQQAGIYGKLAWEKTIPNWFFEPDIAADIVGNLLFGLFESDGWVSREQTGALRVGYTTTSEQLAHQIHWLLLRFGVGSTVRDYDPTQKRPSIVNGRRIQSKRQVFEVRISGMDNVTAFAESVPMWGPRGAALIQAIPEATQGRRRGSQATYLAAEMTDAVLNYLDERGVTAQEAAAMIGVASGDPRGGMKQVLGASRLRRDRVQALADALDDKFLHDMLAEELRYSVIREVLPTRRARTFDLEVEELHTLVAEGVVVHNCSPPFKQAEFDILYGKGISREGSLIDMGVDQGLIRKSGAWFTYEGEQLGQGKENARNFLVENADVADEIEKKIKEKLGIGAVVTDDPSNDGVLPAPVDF

[21] = biological target: T6, Sentrin-specific protease 8 (Homo sapiens, UniProt Q96LD8); type: functional
T6 sequence (Q96LD8 whole entry): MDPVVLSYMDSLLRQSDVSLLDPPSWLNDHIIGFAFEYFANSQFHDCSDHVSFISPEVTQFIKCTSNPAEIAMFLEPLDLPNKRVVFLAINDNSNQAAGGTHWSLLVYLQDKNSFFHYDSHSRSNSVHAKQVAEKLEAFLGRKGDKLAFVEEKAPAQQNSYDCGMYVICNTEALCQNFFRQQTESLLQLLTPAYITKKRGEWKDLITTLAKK

[22] = biological target: T6, Sentrin-specific protease 8; type: functional; remark: listed apart in the source
[23] = biological target: T7, Replicative DNA helicase DnaB (Mycobacterium tuberculosis, UniProt P9WMR3); assay: DnaB intein splicing inhibitors, dose response, biochemical, cell-free fluorescence (AID 449749); type: functional
T7 sequence (P9WMR3 whole entry): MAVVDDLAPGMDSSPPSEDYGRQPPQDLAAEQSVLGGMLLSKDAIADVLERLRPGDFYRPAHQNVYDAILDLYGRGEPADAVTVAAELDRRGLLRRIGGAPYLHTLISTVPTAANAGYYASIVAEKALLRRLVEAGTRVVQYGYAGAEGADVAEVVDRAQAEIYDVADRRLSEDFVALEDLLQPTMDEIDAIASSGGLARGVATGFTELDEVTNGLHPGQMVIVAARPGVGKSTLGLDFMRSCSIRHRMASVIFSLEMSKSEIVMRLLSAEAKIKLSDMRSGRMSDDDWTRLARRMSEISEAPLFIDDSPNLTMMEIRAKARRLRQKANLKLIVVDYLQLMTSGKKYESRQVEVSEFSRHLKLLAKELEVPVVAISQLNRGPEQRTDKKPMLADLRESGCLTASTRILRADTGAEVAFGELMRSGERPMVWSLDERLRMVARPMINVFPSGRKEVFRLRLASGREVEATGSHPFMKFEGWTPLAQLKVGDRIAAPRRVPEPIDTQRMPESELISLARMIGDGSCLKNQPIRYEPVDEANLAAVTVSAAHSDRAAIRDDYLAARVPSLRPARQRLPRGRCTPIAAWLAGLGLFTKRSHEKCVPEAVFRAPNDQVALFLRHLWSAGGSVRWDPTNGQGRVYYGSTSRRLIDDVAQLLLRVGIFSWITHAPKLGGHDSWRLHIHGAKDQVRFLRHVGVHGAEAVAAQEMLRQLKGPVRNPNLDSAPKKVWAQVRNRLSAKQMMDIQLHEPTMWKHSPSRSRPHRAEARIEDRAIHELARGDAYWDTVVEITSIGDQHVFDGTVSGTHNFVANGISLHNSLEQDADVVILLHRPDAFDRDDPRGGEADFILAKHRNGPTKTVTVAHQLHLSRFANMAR

[24] = intracellular Trypanosoma cruzi inhibitors in host cells – cell-based, plate reader, cherry-pick samples, set 3, dose response (AID 651818); type: functional;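 also: compounds incubated with infected cells for about four days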
[25] = mouse fibroblast viability loss – cell-based, cherry-pick samples, set 2, cytotoxicity control for T. cruzi growth inhibitor project, dose response (AID 651817); type: functional; conditions: NIH3T3

T1 sequence (Q79MP6 whole entry): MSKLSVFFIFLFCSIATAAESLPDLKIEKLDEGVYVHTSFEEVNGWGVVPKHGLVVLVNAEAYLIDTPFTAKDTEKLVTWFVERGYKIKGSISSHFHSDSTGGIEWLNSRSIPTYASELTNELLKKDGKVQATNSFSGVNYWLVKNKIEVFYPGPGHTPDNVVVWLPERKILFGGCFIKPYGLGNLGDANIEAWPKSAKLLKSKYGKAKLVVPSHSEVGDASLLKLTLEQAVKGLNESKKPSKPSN

O=[N+]([O-])c1ccccc1/C=C/C=N/n1c(S)nnc1-c1ccccc1F
IC50 (Beta-lactamase [1]): > 59.6 µM (inactive) | IC50 (Beta Lactamase [2]): > 6.63 µM (active) | IC50 (Beta Lactamase [3]): > 59.6 µM (inactive) | IC50 (Beta-lactamase [4]): > 59.6 µM (inactive) | AC50 [5]: 1.89 µM (active) | IC50 (Beta-lactamase [6]): > 59.6 µM (inactive)

N#C[C@H]1[C@H](c2ccc(C#Cc3ccccc3F)cc2)[C@H](CO)N1C(=O)c1cccnc1
AC50 [7]: 1.58 µM (active) | AC50 [8]: 1.59 µM (active) | AbsAC35 [9]: 50.14 µM | AC50 [10]: > 39 µM (inactive) | AC50 [11]: 1.54 µM (active) | AC50 [12]: 1.83 µM (active) | AC50 [13]: > 100 µM (inactive)

Cc1cc(C)c(NC(S)=NCC2CCN(C(C)c3ccccc3)C2)c(C)c1 (configuration not stated)
IC50 [14]: 0.934 µM (active) | IC50 [15]: 0.343 µM (active) | IC50 [16]: 6.09 µM (active) | IC50 [17]: 48.4 µM (inactive) | IC50 [18]: > 80 µM (inactive)

O=C1CCC(C(=O)Nc2cccc(C(F)(F)F)c2)N1 (configuration not stated)
AC50 (HeLa): > 52 µM (inactive)

COC(=O)c1sccc1NC(=O)c1ccc(C#N)cc1
IC50 (Beta-lactamase [19]): > 59.6 µM (inactive) | IC50 (Beta-lactamase [20]): > 59.6 µM (inactive)

CC1=NN(c2cccc(Cl)c2)C(=O)C1
EC50 (Protein RecA): 54.5 µM (active) | IC50 [21]: 8.2 µM (active) | IC50 [22]: 13.4 µM (active) | AC50 [23]: 75.7 µM (active)

C[C@@H]1CN([C@H](C)CO)C(=O)c2cccc(NC(=O)Nc3ccc(C(F)(F)F)cc3)c2O[C@H]1CN(C)Cc1ccc(Cl)c(Cl)c1
AC50 [24]: 1.28 µM (active) | AC50 [25]: 15.7 µM (active)
